Experimental data taken from PubChem BioAssay (NCI).
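How tested: cells in 96-well plates exposed to compound for 48 hours at five concentrations. GI50 = concentration required for 50% inhibition of growth. TGI: concentration producing complete growth inhibition.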

Assays:
Experiment in all cases: NCI tumour cell line growth inhibition, 48 h
DLD-1 colon = test system: DLD-1 colon
M19-MEL melanoma = test system: M19-MEL melanoma
DMS 273 small cell lung = test system: DMS 273 small cell lung
LXFL 529 NSCLC = test system: LXFL 529 NSCLC
HOP-18 NSCLC = test system: HOP-18 NSCLC
XF 498 CNS = test system: XF 498 CNS
SNB-78 CNS = test system: SNB-78 CNS
KM20L2 colon = test system: KM20L2 colon
RXF-631 renal = test system: RXF-631 renal
P388 leukemia = test system: P388 leukemia
P388/ADR leukemia = test system: P388/ADR leukemia

| SMILES | TGI (DLD-1 colon) [µM] | TGI (M19-MEL melanoma) [µM] | TGI (DMS 273 small cell lung) [µM] | TGI (LXFL 529 NSCLC) [µM] | TGI (HOP-18 NSCLC) [µM] | TGI (XF 498 CNS) [µM] | TGI (SNB-78 CNS) [µM] | TGI (KM20L2 colon) [µM] | TGI (RXF-631 renal) [µM] | GI50 (HOP-18 NSCLC) [µM] | GI50 (DLD-1 colon) [µM] | GI50 (M19-MEL melanoma) [µM] | GI50 (DMS 273 small cell lung) [µM] | GI50 (KM20L2 colon) [µM] | GI50 (P388 leukemia) [µM] | TGI (P388 leukemia) [µM] | GI50 (P388/ADR leukemia) [µM] | TGI (P388/ADR leukemia) [µM] | GI50 (XF 498 CNS) [µM] | GI50 (SNB-78 CNS) [µM] |
| --- | --- | --- | --- | --- | --- | --- | --- | --- | --- | --- | --- | --- | --- | --- | --- | --- | --- | --- | --- | --- |
| CCOC(=O)CNC(=O)c1[nH]cnc1/N=N/N(C)C | > 100 | > 100 | > 100 | > 100 |  |  |  |  |  |  |  |  |  |  |  |  |  |  |  |  |
| C/C(CCN(C)C)=N/O | 15.8 | 23 | 18.3 | 4.72 | 29.6 | 33.6 | 51.7 | 22.8 |  |  |  |  |  |  |  |  |  |  |  |  |
| COc1ccc(/C(C=O)=C(\Cl)c2ccc(OC)c(OC)c2)cc1 | > 100 | > 100 | > 100 | > 100 | > 100 | 50.2 | > 100 | > 100 | > 100 |  |  |  |  |  |  |  |  |  |  |  |
| CN(Cc1cnc2nc(N)nc(N)c2n1)c1ccc(C(=O)NC(CCC(=O)O)C(=O)O)c2ccccc12 (centres undefined) |  |  |  |  |  |  |  |  |  | 0.0452 | 0.00257 | 0.0725 | 0.000946 | 0.00489 |  |  |  |  |  |  |
| NC1CCC2(O)c3ccccc3C2C1 (centres undefined) |  | > 100 | > 100 | > 100 | > 100 | > 100 | > 100 | > 100 |  |  |  |  |  |  |  |  |  |  |  |  |
| CCC12CCC[C@@]13C=C[C@H](O3)C(C)(C)C2=O (some centres undefined) | > 100 | > 100 | > 100 | > 100 | > 100 |  | > 100 | > 100 | > 100 |  |  |  |  |  |  |  |  |  |  |  |
| COCc1cc2c(s1)C(=O)C1=C(C2=O)C2(C=C(Br)C(=O)C(Br)=C2)CCN1 | 24.4 | 2.77 | 13.6 | 11.7 | 28.4 | 19.6 | 24.4 |  |  |  |  |  |  |  |  |  |  |  |  |  |
| CCOC(=O)C(Cc1ccc(N=NN(C)C)cc1)NC(=O)CC1c2ccccc2-c2ccccc21 (centres undefined) | > 100 | > 100 | > 100 | > 100 |  |  |  |  |  |  |  |  |  |  |  |  |  |  |  |  |
| [C-]#[O+].[Cl][Sn]([Cl])[Cl].[Cl][Sn]([Cl])[Cl].[Pt].c1cnc2c(c1)ccc1cccnc12 |  | > 31.6 | 6 |  | > 100 | 44.3 | 66 | 4.54 |  | 6.73 |  | 3.25 | 2.59 | 1.97 | 2.12 | 5.68 | 1.78 | 5.1 | 9.1 | 15.8 |
| CC1CC(c2ccccc2)=Nc2ccccc2S1 (centres undefined) | > 100 | > 100 | > 100 | > 100 |  | > 100 | > 100 | > 100 | > 100 |  |  |  |  |  |  |  |  |  |  |  |
| COc1cccc(/C=N/[N-]C(N)=O)c1[O-].[Cu+2].[OH3+] |  |  |  |  |  | 29.4 |  | 20.6 |  |  |  |  |  |  |  |  |  |  | 15.9 |  |
| COc1c(OC2OC(CO)C(O)C(O)C2O)cc2c(c1OC)-c1ccc(OC)c(=O)cc1C(NC(C)=O)CC2 (centres undefined) | > 100 | > 100 | > 100 | > 100 | > 100 | > 100 | > 100 | > 100 | > 100 |  |  |  |  |  |  |  |  |  |  |  |
| O=C(O)C1CCC(=O)N1C(=O)COc1cc(Cl)c(Cl)cc1Cl (centres undefined) |  | > 100 | > 100 | > 100 |  | > 100 | > 100 | > 100 | > 100 |  |  |  |  |  |  |  |  |  |  |  |
| CC(C)C(NCc1c2ccccc2[n+](C)c2ccccc12)C(=O)O (centres undefined) | 13.8 | 21.2 | 13.3 | 14 | 18.1 | 17.8 | 24.8 | 7.33 | 17.1 |  |  |  |  |  |  |  |  |  |  |  |
